These results are taken from BindingDB's records for doi:10.1021/jm00174a016 (University of Paris, 1991).

Where a SMILES comes first, the peptide text is derived from it. [ ]: non-standard residue; d: D form. The star is where a group is joined. sY = N[C@@H](Cc1ccc(OS(=O)(=O)O)cc1)C(=O)O; Nle = CCCC[C@H](N)C(=O)O; Orn = NCCC[C@H](N)C(=O)O; Cbz = O=C(OCc1ccccc1)*; Boc = CC(C)(C)OC(=O)*

For assay [1], the target named is Gastrin/cholecystokinin type B receptor (Cavia porcellus). Description: Apparent affinity to inhibit binding of [3H]pCCK-8 to Cholecystokinin type B receptor of guinea pig brain membranes.
The target is the same in assay [2]. The assay is described as above. This is another data set of the same source.

Consider `CC(C)(C)OC(=O)N[C@@H](Cc1c[nH]c2ccccc12)C(=O)N[C@@H](CCCNC(=O)OCc1ccccc1)C(=O)N[C@@H](CC(=O)O)C(N)=O` (Boc-Trp-[Orn](Cbz)-Asp-NH2), for which the Ki in assay [1] worked out at 4200 nM. On the same count and under the same terms, under `CC(C)(C)OC(=O)N[C@@H](Cc1c[nH]c2ccccc12)C(=O)N[C@@H](CCCNC(=O)OCc1ccccc1)C(=O)N[C@@H](CC(=O)O)C(=O)N[C@@H](Cc1ccccc1)C(N)=O` (Boc-W[Orn](Cbz)DF-NH2) stands 580 nM. Regarding `CC(C)(C)OC(=O)N[C@@H](Cc1c[nH]c2ccccc12)C(=O)N[C@@H](CCCN)C(=O)N[C@@H](CC(=O)O)C(=O)N[C@@H](Cc1ccccc1)C(N)=O` (Boc-W[Orn]DF-NH2), the Ki in assay [2] is 1400 nM. For `CCCC[C@H](NC(=O)[C@H](Cc1ccc(OS(=O)(=O)O)cc1)NC(=O)OC(C)(C)C)C(=O)NCC(=O)N[C@@H](Cc1c[nH]c2ccccc12)C(=O)N[C@@H](CCCNC(=O)OCc1ccccc1)C(=O)N[C@@H](CC(=O)O)C(N)=O` (Boc-[sY][Nle]GW[Orn](Cbz)D-NH2), the Ki in assay [1] was determined as 54 nM.

As for `CC(C)(C)OC(=O)NCCC[C@H](NC(=O)[C@H](Cc1c[nH]c2ccccc12)NC(=O)OC(C)(C)C)C(=O)N[C@@H](CC(=O)O)C(N)=O` [3-{5-tert-Butoxycarbonylamino-2-[2-tert-butoxycarbonylamino-3-(1H-indol-3-yl)-propionylamino]-pentanoylamino}-succinamic acid] (Boc-Trp-[Orn](Boc)-Asp-NH2), the Ki in assay [2] is 4300 nM.
